Consider 2 molecules from US20150152070A1, “METHODS OF PEST CONTROL IN SOYBEAN” (Syngenta Participations AG, priority 2012, published 2015).

This test relates to Euschistus heros (Neotropical Brown Stink Bug). Nature of the test: Euschistus heros (Neotropical Brown Stink Bug) contact/feeding activity on sprayed soybean plants. It counts as in vivo. Conditions: comparative example, mortality 5 days after infestation. The procedure: Euschistus heros (Neotropical Brown Stink Bug) (Contact/Feeding Activity)
2 week old soybean plants are sprayed in a turn table spray chamber with the diluted spray solutions. After drying, 2 soybean seeds are added and plants are infested with 10 N-2 nymphs of the neotropical brown stink bug Euschistus heros in plastic test boxes. Boxes are incubated in a climate chamber at 25° C. and 60% RH. Evaluation is done 5 days after infestation on mortality.

Each structure is given as a SMILES string.

For `O=C(CC(F)(F)F)NC1CCc2cc(C3=NOC(c4cc(Cl)cc(Cl)c4)(C(F)(F)F)C3)ccc21` (stereo not drawn) [Compound of the invention], the Control/% worked out at 75% (application rate 3.0 ppm), 100% (application rate 12.5 ppm) and 100% (application rate 50 ppm).
For the molecule `O=C(NCC(F)(F)F)N1CCc2cc(C3=NOC(c4cc(Cl)cc(Cl)c4)(C(F)(F)F)C3)ccc21` (stereo not drawn) [Reference compound], the Control/% is, setting by setting: (application rate 3.0 ppm) 0%; (application rate 12.5 ppm) 0%; (application rate 50 ppm) 5%.
